Earlier results as cited in PMC3499999, “Advances in the Treatment of Malaria” (Mediterranean Journal of Hematology and Infectious Diseases, 2012).

What was measured:
[1] = set-up: method as in PMID 10661809; conditions: high intramuscular doses, oil-based, beagle dogs
[2] = set-up: method as in PMID 20863871; conditions: animals, only for long drug exposure; artemether and arteether intramuscularly, artelinic acid orally
[3] = tested on: P. falciparum; set-up: method as in earlier work; conditions: 3-days course
[4] = tested on: severe malaria; conditions: artesunate versus quinine, systematic reviews, regardless of age and geographic differences
[5] = set-up: method as in PMID 22540954
[6] = tested on: severe malaria; set-up: method as in PMID 19059639; conditions: rectal, over placebo, p=0.0013
[7] = not given; remark: listed apart in the source
[8] = set-up: method as in PMID 17461742
[9] = in vivo

## CCO[C@H]1O[C@@H]2O[C@@]3(C)CC[C@H]4[C@H](C)CC[C@@H]([C@H]1C)[C@@]24OO3 [arteether]
[1]
  QTc prolongation: reported at significant level
[2]
  neurotoxicity: Fatal neurotoxicity

## C[C@H]1[C@@H](OCc2ccc(C(=O)O)cc2)O[C@@H]2O[C@@]3(C)CC[C@H]4[C@H](C)CC[C@@H]1[C@@]24OO3 [artelinic acid]
[2]
  neurotoxicity: Fatal neurotoxicity

## CO[C@H]1O[C@@H]2O[C@@]3(C)CC[C@H]4[C@H](C)CC[C@@H]([C@H]1C)[C@@]24OO3 [artemether]
[1]
  QTc prolongation: reported at significant level
other
  half-life: 2 to 4 h
[2]
  neurotoxicity: Fatal neurotoxicity

## C[C@@H]1CC[C@H]2[C@@H](C)C(=O)O[C@@H]3O[C@@]4(C)CC[C@@H]1[C@]32OO4 [artemisinin]
[3]
  reduction of parasite burden: 90%

## C[C@H]1[C@H](OC(=O)CCC(=O)O)O[C@@H]2O[C@@]3(C)CC[C@H]4[C@H](C)CC[C@@H]1[C@@]24OO3 [artesunate]
other
  half-life: < 1 h
[4]
  case fatality rate, RR: 0.71
[5]
  median elimination T ½: 0.25 [0.11 – 1.82] hours
[6]
  death or permanent disability, RR: 0.49

## COc1cc(NC(C)CCCN/C(C)=C2\CCOC2=O)c2ncccc2c1 (stereo not drawn) [buloquine]
[7]
  oxidative toxicity compared with primaquine: less oxidative toxicity

## COc1cc(NC(C)CCCN)c2ncccc2c1 (stereo not drawn) [primaquine]
[7]; patients with glucose-6-phosphate dehydrogenase deficiency
  main safety concern: risk of severe intravascular haemolysis

## COc1cc(C)c2c(Oc3cccc(C(F)(F)F)c3)c(OC)cc(NC(C)CCCN)c2n1 (stereo not drawn) [tefenoquine, tafenoquine]
[8]
  half-life compared with primaquine: longer half-life

## Atovaquone-proguanil
[9]
  risk of birth defects relative to the general population: ≤ 3 times
